From the NIST ThermoML archive (doi:10.1016/j.jct.2015.09.004)

Key:
[1] = for vapor or sublimation pressure: Closed cell (Static) method; for Normal melting temperature: DTA
[2] = Molar enthalpy of transition or fusion; conditions: Crystal; DSC

CC(=O)c1ccc(F)cc1 [1-(4-fluorophenyl)ethanone]
[1]
Conditions | vapor or sublimation pressure [kPa]
255.13 K, Metastable liquid | 0.00086
256.87 K, Metastable liquid | 0.00104
258.79 K, Metastable liquid | 0.00128
260.76 K, Metastable liquid | 0.00157
262.72 K, Metastable liquid | 0.00193
264.7 K, Metastable liquid | 0.00233
266.63 K, Metastable liquid | 0.00285
268.62 K, Metastable liquid | 0.00348
270.62 K, Liquid | 0.00417
272.54 K, Liquid | 0.00501
274.51 K, Liquid | 0.00603
276.49 K, Liquid | 0.00725
278.49 K, Liquid | 0.00865
280.5 K, Liquid | 0.01035
282.42 K, Liquid | 0.01227
284.44 K, Liquid | 0.01455
286.42 K, Liquid | 0.01723
288.39 K, Liquid | 0.02022
290.38 K, Liquid | 0.02379
292.34 K, Liquid | 0.02795
294.31 K, Liquid | 0.03279
296.34 K, Liquid | 0.03807
298.27 K, Liquid | 0.04465
300.3 K, Liquid | 0.05171
302.24 K, Liquid | 0.06005
304.2 K, Liquid | 0.06895
306.15 K, Liquid | 0.07985
308.16 K, Liquid | 0.09146
310.15 K, Liquid | 0.1056

Conditions | Normal melting temperature [°C]
[1], Crystal | -4

Conditions | Molar enthalpy of transition or fusion [kcal/mol]
[2] | 3.39

CC(=O)c1ccc(I)cc1 [para-iodoacetophenone]
[1]
Conditions | vapor or sublimation pressure [kPa]
313.07 K, Crystal | 0.00086
315.1 K, Crystal | 0.00108
317.07 K, Crystal | 0.00134
319.04 K, Crystal | 0.00166
321.02 K, Crystal | 0.00205
323.02 K, Crystal | 0.00253
325.06 K, Crystal | 0.00313
326.98 K, Crystal | 0.00382
329.06 K, Crystal | 0.00477
330.99 K, Crystal | 0.00578
333.01 K, Crystal | 0.0071
334.95 K, Crystal | 0.00856
336.96 K, Crystal | 0.01043
338.87 K, Crystal | 0.01256
340.91 K, Crystal | 0.01528
342.83 K, Crystal | 0.01834
344.76 K, Crystal | 0.02192
346.73 K, Crystal | 0.02634
348.73 K, Crystal | 0.03176
348.73 K, Metastable liquid | 0.03831
350.7 K, Metastable liquid | 0.04337
350.71 K, Crystal | 0.03795
352.69 K, Metastable liquid | 0.04939
352.75 K, Crystal | 0.04537
354.68 K, Metastable liquid | 0.05596
356.62 K, Metastable liquid | 0.06332
358.92 K, Liquid | 0.07293
360.65 K, Liquid | 0.08166
362.51 K, Liquid | 0.09128
364.59 K, Liquid | 0.1048
366.58 K, Liquid | 0.1171
368.51 K, Liquid | 0.131
370.52 K, Liquid | 0.1458
372.41 K, Liquid | 0.1634
374.48 K, Liquid | 0.1829
376.36 K, Liquid | 0.2045
378.41 K, Liquid | 0.2281
380.39 K, Liquid | 0.2553
382.37 K, Liquid | 0.2831
384.3 K, Liquid | 0.3146
386.31 K, Liquid | 0.3478
388.27 K, Liquid | 0.3882
389.83 K, Liquid | 0.42
392.22 K, Liquid | 0.4723
394.17 K, Liquid | 0.5188
396.15 K, Liquid | 0.5726
398.12 K, Liquid | 0.6279
399.98 K, Liquid | 0.6883
402.04 K, Liquid | 0.7599

Conditions | Normal melting temperature [°C]
[1], Crystal | 84.5

Conditions | Molar enthalpy of transition or fusion [kcal/mol]
[2] | 5.62

CC(=O)c1ccc(Cl)cc1 [4'-chloroacetophenone]
[1]
Conditions | vapor or sublimation pressure [kPa]
271.56 K, Metastable liquid | 0.00065
273.59 K, Metastable liquid | 0.00081
275.52 K, Metastable liquid | 0.00098
277.47 K, Metastable liquid | 0.00118
279.48 K, Metastable liquid | 0.00144
281.51 K, Metastable liquid | 0.00176
283.42 K, Metastable liquid | 0.0021
285.45 K, Metastable liquid | 0.00256
287.39 K, Metastable liquid | 0.00305
289.34 K, Metastable liquid | 0.00364
291.32 K, Liquid | 0.00437
293.32 K, Liquid | 0.00519
295.29 K, Liquid | 0.00616
297.26 K, Liquid | 0.00729
299.24 K, Liquid | 0.00863
301.19 K, Liquid | 0.01012
303.21 K, Liquid | 0.01198
305.16 K, Liquid | 0.01396
307.18 K, Liquid | 0.01629
309.12 K, Liquid | 0.01902
311.1 K, Liquid | 0.02236
313.1 K, Liquid | 0.02596
315.07 K, Liquid | 0.03015
317.04 K, Liquid | 0.03486
319.07 K, Liquid | 0.04049
321 K, Liquid | 0.04613
323.09 K, Liquid | 0.05334
325.1 K, Liquid | 0.0612
327.08 K, Liquid | 0.06999
329.05 K, Liquid | 0.07991
331.04 K, Liquid | 0.09133
333 K, Liquid | 0.1037
334.98 K, Liquid | 0.1174

Conditions | Normal melting temperature [°C]
[1], Crystal | 17.2

Conditions | Molar enthalpy of transition or fusion [kcal/mol]
[2] | 3.66

CC(=O)c1ccc(Br)cc1 [4'-bromoacetophenone]
[1]
Conditions | vapor or sublimation pressure [kPa]
295.3 K, Crystal | 0.00115
297.26 K, Crystal | 0.00142
299.2 K, Crystal | 0.00175
301.22 K, Crystal | 0.00219
303.17 K, Crystal | 0.00269
305.12 K, Crystal | 0.00341
305.14 K, Metastable liquid | 0.00501
307.11 K, Crystal | 0.00418
307.13 K, Metastable liquid | 0.00591
309.13 K, Crystal | 0.00512
309.14 K, Metastable liquid | 0.00699
311.05 K, Crystal | 0.00632
311.08 K, Metastable liquid | 0.0082
312.97 K, Metastable liquid | 0.00953
313.08 K, Crystal | 0.00777
315.05 K, Crystal | 0.00949
315.06 K, Metastable liquid | 0.01125
317.04 K, Crystal | 0.01155
317.08 K, Metastable liquid | 0.01318
319.04 K, Crystal | 0.0141
319.06 K, Metastable liquid | 0.01542
321.03 K, Metastable liquid | 0.01778
322.97 K, Metastable liquid | 0.02065
324.98 K, Metastable liquid | 0.02389
327.07 K, Liquid | 0.02782
328.92 K, Liquid | 0.03179
331.01 K, Liquid | 0.03679
333 K, Liquid | 0.04238
334.94 K, Liquid | 0.04849
336.95 K, Liquid | 0.05561
338.92 K, Liquid | 0.06344
340.91 K, Liquid | 0.07228
342.92 K, Liquid | 0.08249
344.85 K, Liquid | 0.09385
346.83 K, Liquid | 0.1056
348.79 K, Liquid | 0.1197
350.66 K, Liquid | 0.1346
352.73 K, Liquid | 0.1529
354.58 K, Liquid | 0.1698
356.66 K, Liquid | 0.1927
358.51 K, Liquid | 0.2158
360.62 K, Liquid | 0.2427
362.46 K, Liquid | 0.27
364.54 K, Liquid | 0.3031
366.57 K, Liquid | 0.3388
368.54 K, Liquid | 0.3774
370.53 K, Liquid | 0.4201
372.5 K, Liquid | 0.4659
374.46 K, Liquid | 0.5142
376.43 K, Liquid | 0.5712
378.39 K, Liquid | 0.6312

Conditions | Normal melting temperature [°C]
[1], Crystal | 51.1

Conditions | Molar enthalpy of transition or fusion [kcal/mol]
[2] | 4.57
